# Experimental data from patent US20070099939A1, “Fungicidal mixtures for controlling rice pathogens” (priority 2003, published 2007).
# System: Cochliobolus miyabeanus
# Assay: Activity against brown spot of rice caused by Cochliobolus miyabeanus, protective application
# Type: in vivo
# Settings: individual active compound, inoculated next day, assessed after six days
# Procedure: The active compounds, separately or jointly, were prepared as a stock solution with 0.25% by weight of active compound in acetone or DMSO. 1% by weight of the emulsifier Uniperol® EL (wetting agent having emulsifying and dispersing action based on ethoxylated alkylphenols) was added to this solution, and the solution was diluted with water to the desired concentration.
# Use Example—Activity Against Brown Spot of Rice Caused by Cochliobolus Miyabeanus, Protective Application
# Leaves of potted rice seedlings of the cultivar “Tai-Nong 67” were sprayed to runoff point with an aqueous suspension of the concentration of active compound stated below. The next day, the plants were inoculated with an aqueous spore suspension of Cochliobolus miyabeanus. The test plants were then placed in climatized chambers at 22-24° C. and 95-99% relative atmospheric humidity for six days. The extent of the development of the infection on the leaves was then determined visually.
# Evaluation was carried out by determining the percentage of infected plants. These percentages were converted into efficacies.
# The efficacy (E) is calculated as follows using Abbot's formula: E=(1−α/β)·100 • α corresponds to the fungicidal infection of the treated plants in % and • β corresponds to the fungicidal infection of the untreated (control) plants in %
# An efficacy of 0 means that the infection level of the treated plants corresponds to that of the untreated control plants; an efficacy of 100 means that the treated plants are not infected.
# The expected efficacies of mixtures of active compounds are determined using Colby's formula (R.S. Colby, Weeds, 15, 20-22, 1967) and compared with the observed efficacies.
# Colby's Formula: E=x+y−x·y/100 • E expected efficacy, expressed in % of the untreated control, when using the mixture of the active compounds A and B at the concentrations a and b • x efficacy, expressed in % of the untreated control, when using the active compound A at the concentration a • y efficacy, expressed in % of the untreated control, when using the active compound B at the concentration b
SMILES,Efficacy in % of the untreated control (4 ppm in the spray liquor),Efficacy in % of the untreated control (1 ppm in the spray liquor)
CC1CCN(c2c(-c3c(F)cccc3Cl)c(Cl)nc3ncnn23)CC1 [A],44%,
C[C@H](Nc1c(-c2c(F)cc(F)cc2F)c(Cl)nc2ncnn12)C(F)(F)F [B],44%,
"CC1=C(C(=O)Nc2ccccc2)SCCO1 [II (carboxin), N-phenyl-2-methyl-5,6-dihydro-[1,4]oxathiine-3-carboxamide]",0%,0%
"CC1CCN(c2c(-c3c(F)cc(F)cc3F)c(Cl)nc3ncnn23)CC1 [I, 5-chloro-7-(4-methylpiperidin-1-yl)-6-(2,4,6-trifluorophenyl)-[1,2,4]triazolo[1,5-a]pyrimidine]",33%,
